Experimental data published in the supplement of paper PMC4862054.

Tests used:
Conditions in all cases: incubation time: 72 h
[1] = system: BT-474; assay: normalised response (% of control), CellTox Green; higher = less cell death (100 = DMSO, 0 = benzethonium chloride kill control)
How it was run: (§1)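 For each plate, 0.1 % DMSO was set to 100 and a positive kill control to 0. Breast cancer cell lines (20 µl suspension) were seeded into 384-well plates already holding compound at 5 concentrations in 10-fold steps over a 10,000-fold range chosen per compound, and incubated for 72 h. CellTox Green fluorescence at 485/520 nm was read before CellTiter-Glo luminescence, which followed 10 min at room temperature. Each value is the normalised signal at one concentration.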

[2] = system: BT-549; assay: as above
How it was run: as §1

[3] = system: CAL-120; assay: as above
How it was run: as §1

[4] = system: CAL-148; assay: as above
How it was run: as §1

[5] = system: CAL-51; assay: as above
How it was run: as §1

[6] = system: CAL-85-1; assay: as above
How it was run: as §1

[7] = system: DU-4475; assay: as above
How it was run: as §1

[8] = system: HCC1143; assay: as above
How it was run: as §1

[9] = system: HCC1599; assay: as above
How it was run: as §1

[10] = system: HCC1937; assay: as above
How it was run: as §1

[11] = system: HDQ-P1; assay: as above
How it was run: as §1

[12] = system: Hs578T; assay: as above
How it was run: as §1

[13] = system: MCF-10A; assay: as above
How it was run: as §1

[14] = system: MDA-MB-231; assay: as above
How it was run: as §1

[15] = system: MDA-MB-436; assay: as above
How it was run: as §1

[16] = system: MDA-MB-453; assay: as above
How it was run: as §1

[17] = system: MDA-MB-468; assay: as above
How it was run: as §1

[18] = system: MFM-223; assay: as above
How it was run: as §1

[19] = system: BT-474; assay: normalised response (% of control), CellTiter-Glo; higher = more viable cells (100 = DMSO, 0 = benzethonium chloride kill control)
Protocol: (§2)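 DSRT, 72 h incubation, CellTox Green / CellTiter-Glo readout. Signal is normalised to DMSO and benzethonium chloride controls. Value is the normalised response at the highest dose.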

[20] = system: BT-549; assay: as above
Protocol: as §2

[21] = system: CAL-120; assay: as above
Protocol: as §2

[22] = system: CAL-148; assay: as above
Protocol: as §2

[23] = system: CAL-51; assay: as above
Protocol: as §2

[24] = system: CAL-85-1; assay: as above
Protocol: as §2

[25] = system: DU-4475; assay: as above
Protocol: as §2

[26] = system: HCC1143; assay: as above
Protocol: as §2

[27] = system: HCC1599; assay: as above
Protocol: as §2

[28] = system: HCC1937; assay: as above
Protocol: as §2

[29] = system: HDQ-P1; assay: as above
Protocol: as §2

[30] = system: Hs578T; assay: as above
Protocol: as §2

[31] = system: MCF-10A; assay: as above
Protocol: as §2

[32] = system: MDA-MB-231; assay: as above
Protocol: as §2

[33] = system: MDA-MB-436; assay: as above
Protocol: as §2

[34] = system: MDA-MB-453; assay: as above
Protocol: as §2

[35] = system: MDA-MB-468; assay: as above
Protocol: as §2

[36] = system: MFM-223; assay: as above
Protocol: as §2

[37] = system: SK-BR-3; assay: as above
Protocol: as §2

SMILES	normalised response [1] [%]	normalised response [2] [%]	normalised response [3] [%]	normalised response [4] [%]	normalised response [5] [%]	normalised response [6] [%]	normalised response [7] [%]	normalised response [8] [%]	normalised response [9] [%]	normalised response [10] [%]	normalised response [11] [%]	normalised response [12] [%]	normalised response [13] [%]	normalised response [14] [%]	normalised response [15] [%]	normalised response [16] [%]	normalised response [17] [%]	normalised response [18] [%]	normalised response [19] [%]	normalised response [20] [%]	normalised response [21] [%]	normalised response [22] [%]	normalised response [23] [%]	normalised response [24] [%]	normalised response [25] [%]	normalised response [26] [%]	normalised response [27] [%]	normalised response [28] [%]	normalised response [29] [%]	normalised response [30] [%]	normalised response [31] [%]	normalised response [32] [%]	normalised response [33] [%]	normalised response [34] [%]	normalised response [35] [%]	normalised response [36] [%]	normalised response [37] [%]
Cc1ccc([N+](=O)[O-])cc1S(=O)(=O)N(C)/N=C/c1cnc2ccc(Br)cn12 [PIK-75] (10000 nM)	7.46	-7.34	81.7	65.1	-5.71	50.7	74.7	54.4	72.6	24.7	66.3	-10.9	-39.7	-38.5	76	51.3	31.6	18.6	8.5	1.57	26.6	37.5	5.22	7.97	1.22	12.6	8.43	6.99	17.4	0.96	-0.11	1.78	15	0.48	2.17	3.73	0.21
CC(=O)c1c(C)c2cnc(Nc3ccc(N4CCNCC4)cn3)nc2n(C2CCCC2)c1=O [Palbociclib] (10000 nM)	96	106	102		94.1	103	97	101	99.4	89	50.1	135	74.4	121	68.1	61.4	193	90.1	69.7	79.3	77.7	80.4	55	70.4	86.9	76.5	86.5	93.2	86.3	86.9	65.8	84.3	74.4	92.7	68.2	65.9	52.9
COc1cc(F)c(F)c(Nc2ccc(I)cc2F)c1NS(=O)(=O)C1(C[C@H](O)CO)CC1 [Refametinib] (10000 nM)	99.6	101	92	75.8	101	-0.94	69.6	106	107	88.4	82.1	97.8	65.8	64.1	95.6	102	-53.7	97.9	47.8	65.7	55.7	65.8	92.5	23.8	0.11	67.3	102	58.5	43.6	55.1	25	43.7	54.8	82.7	45.2	41	77.2
